Holding throughout (experiment): growth of human tumour cells (NCI), 48 h
Experiment [1] relates to MALME-3M melanoma.
Experiment [2] concerns HOP-92 NSCLC.
The test system of experiment [3] is SR leukemia.
Experiment [4] concerns OVCAR-4 ovarian.
The test system of experiment [5] is CAKI-1 renal.
Experiment [6] has as its system RPMI-8226 leukemia.
The test system of experiment [7] is U251 CNS.
For experiment [8], the system named is MDA-MB-435.
In experiment [9] the test system is PC-3 prostate.
Experiment [10] concerns NCI/ADR-RES ovarian.

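Growth conditions: 96-well plates. Treatment: test compound, 48 hours, 5 concentrations. Analysis: linear interpolation between bracketing concentrations; unreached endpoints set to highest concentration. GI50 = concentration required for 50% inhibition of growth. TGI denotes the concentration required for complete inhibition of growth.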

In the case of `c1ccc2c(c1)oc1ccc3nsnc3c12`, the TGI in [1], in [2], in [3], in [4] and in experiment [5] was > 100 µM in each case.
Take `C[Si](C)(C)/C=C\CCO`: the TGI in experiment [1], in [2], in [6], in experiment [3] and in experiment [7] was > 100 µM throughout.
Regarding `O=S(=O)(NCn1ccc2ccccc21)c1ccccc1`, the TGI in experiment [1] was > 100 µM; in [2], > 100 µM; in experiment [6], 47.2 µM; in [3], > 74.3 µM; in [7], > 100 µM.
For `COC(=O)CC(NC(=O)OCc1ccccc1)C(C(=O)OCc1ccccc1)C(C)(OC)OC` (stereo not given), the TGI in [1] was 80.9 µM; in experiment [6] it was 58.8 µM; in experiment [3], 53 µM; in experiment [7] it was > 100 µM; in experiment [4], > 100 µM.
As for `COC(=O)c1c2c(cc3c1CC1(Cc4cc5c(c(C(C)=O)c4C1)CCC5)C3)CCC2` (stereo not given), the TGI in experiment [1], in experiment [2], in experiment [3], in experiment [7], in experiment [4] and in experiment [5] was > 100 µM each time.
Regarding `COc1ccc(CCc2cc(OC)cc(OC)c2)cc1`, the TGI in experiment [1] is > 83.7 µM; in experiment [2], > 100 µM; in experiment [6], 94.8 µM; in experiment [3] it was > 100 µM; in experiment [7], > 100 µM; in [4], > 100 µM. Further, in experiment [5], the TGI was > 100 µM.
As to `COc1ccc(C(=O)C(CC2C(=O)NC(=O)NC2=O)c2ccc(OC)cc2)cc1` (stereo not given), the TGI in [1], in experiment [3], in experiment [7], in experiment [4] and in experiment [5] was > 100 µM throughout.
Turning to `CCOC(=O)N1CCc2cc(OC)c(OC)cc2/C1=C\c1ccc(OC)c(OC)c1`, the TGI in experiment [1] is 57.1 µM; in experiment [2], 56.1 µM; in experiment [6], > 100 µM; in [3] it was > 100 µM; in experiment [7] it was 92.9 µM.
For `CCCC(=O)N[C@H]1C2C3CC4C5CC(C42)C1(C)C53` (stereo not given in full), the TGI in experiment [1], in [2], in [6], in experiment [3], in experiment [7] and in experiment [4] was > 100 µM in each case. Besides, the TGI in experiment [5] is > 100 µM.
For `c1ccc(-c2nc(N3CCOCC3)c3c4c(sc3n2)CCCCCC4)nc1`, the GI50 in experiment [1] was 3.32 µM; in [2], 0.622 µM; in experiment [6] it was 2.12 µM; in [8], 4.82 µM; in [7], 4.38 µM; in experiment [4], 4.85 µM. Further, the GI50 in experiment [9] is 2.69 µM; in experiment [5] it was 2.29 µM; in experiment [10] it was 0.836 µM. The TGI in experiment [1] is 14.9 µM; in experiment [2] it was 5.05 µM; in experiment [6] it was 9.67 µM; in experiment [8], 17.7 µM; in [7] it was 17 µM; in experiment [4], 80.3 µM. The figures for the TGI in [9], in [5] and in [10] were 11.8 µM, 16.1 µM and 18.2 µM, respectively.
`c1ccc2c(-c3nc(-c4c[nH]c5ccncc45)cs3)c[nH]c2c1`: the GI50 was 1.65 µM in experiment [1]; 1.44 µM in [2]; 1.25 µM in experiment [6]; 1.75 µM in experiment [8]; 1.93 µM in [7]; 2.96 µM in [4]. The GI50 was 1.84 µM in experiment [9], 1.98 µM in [5] and 3.2 µM in [10]. Also, the TGI in experiment [1] amounted to 3.13 µM; in [2] it was 3.28 µM; in experiment [6], 3.04 µM; in experiment [8], 3.23 µM; in [7], 3.58 µM; in experiment [4], 11.7 µM. Further, the TGI was determined as 6.25 µM in experiment [9], 5.74 µM in [5] and 15.5 µM in experiment [10].
Regarding `CC(=O)O[C@]1(C)OC(=O)[C@@H](CC(C)C)N1[N+](=O)[O-]`, the TGI in experiment [1], in [6], in experiment [3], in experiment [7] and in experiment [4] was > 100 µM throughout.
For the molecule `Cc1c(NC(=S)NC(=O)c2ccc([N+](=O)[O-])cc2)c(=O)n(-c2ccccc2)n1C`, the TGI in experiment [1], in experiment [2], in experiment [6], in [3], in experiment [7] and in experiment [4] was > 100 µM in each case. Also, the TGI in experiment [5] is > 100 µM.
With `CC(C)OP(=O)(OC(C)C)/C(N)=N/Nc1ccc([N+](=O)[O-])cc1`, the TGI in experiment [1], in [2], in experiment [6], in experiment [3], in [7] and in [4] was > 100 µM each time. Besides, in experiment [5], the TGI was > 100 µM.

The record behind these values is PubChem BioAssay (NCI).
